Drawing on publication PMC11844072, “Novel 5,6-dichlorobenzimidazole derivatives as dual BRAFWT and BRAFV600E inhibitors: design, synthesis, anti-cancer activity and molecular dynamics simulations” (BMC Chemistry, 2025), this text covers inhibition for four molecules.

One assay concerns CAKI-1. The assay is described as follows: NCI 60 single concentration growth inhibition. The conditions noted are these: Homo sapiens, CAKI-1, Renal cancer, read-out: GI%. The format is cell-based, human. Put shortly: (§1)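 For the single-dose testing, a 10 µM concentration was applied for 48 h. Adherent lines were fixed with cold TCA, stained with SRB and read at 515 nm, and the result was reported as percent growth versus untreated cells.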

Another assay has as its system HCT-116. The assay can be described thus: NCI 60 single concentration growth inhibition. The format is cell-based, human. The conditions noted are these: Homo sapiens, HCT-116, Colon cancer, read-out: GI%. The essentials:
as §1

The test system of another assay is KM12. The assay is described as follows: NCI 60 single concentration growth inhibition. The format is cell-based, human. The conditions noted are these: Homo sapiens, KM12, Colon cancer, read-out: GI%. Put shortly: as §1
The test system of the next assay is MDA-MB-435. The assay is described as follows: NCI 60 single concentration growth inhibition. The format is cell-based, human. The conditions noted are these: Homo sapiens, MDA-MB-435, Melanoma, read-out: GI%. The essentials: as §1
The subject of a further assay is MOLT-4. The assay is described as follows: NCI 60 single concentration growth inhibition. The format is cell-based, human. The conditions noted are these: Homo sapiens, MOLT-4, Leukemia, read-out: GI%. Put shortly:
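Single-dose screen: cells in RPMI 1640 with 5% FBS and 2 mM L-glutamine, pre-grown 24 h, then exposed to 10 µM compound for 48 h at 37 °C. Protein was measured by TCA fixation and sulforhodamine B staining at 515 nm, and percent growth was taken against time-zero and untreated wells.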

For a further assay, the system named is NCI-H23. The assay is described as follows: NCI 60 single concentration growth inhibition. The format is cell-based, human. The conditions noted are these: Homo sapiens, NCI-H23, Non-small cell lung cancer, read-out: GI%. Put shortly: as §1
In the next assay the test system is RPMI-8226. The assay can be described thus: NCI 60 single concentration growth inhibition. The conditions noted are these: Homo sapiens, RPMI-8226, Leukemia, read-out: GI%. The format is cell-based, human. Put shortly:
as §1

Another assay relates to SF-539. The assay is described as follows: NCI 60 single concentration growth inhibition. The format is cell-based, human. The conditions noted are these: Homo sapiens, SF-539, CNS cancer, read-out: GI%. The essentials: as §1
Another assay has as its system DU-145. The assay is described as follows: NCI 60 single concentration growth inhibition. The format is cell-based, human. The conditions noted are these: Homo sapiens, DU-145, Prostate cancer, read-out: GI%. The essentials: as §1
The test system of a further assay is HCC-2998. The assay is described as follows: NCI 60 single concentration growth inhibition. The format is cell-based, human. The conditions noted are these: Homo sapiens, HCC-2998, Colon cancer, read-out: GI%. Put shortly: as §1
Another assay deals with HCT-15. The assay can be described thus: NCI 60 single concentration growth inhibition. The conditions noted are these: Homo sapiens, HCT-15, Colon cancer, read-out: GI%. The format is cell-based, human. The essentials: as §1
Another assay has as its system HT29. The assay can be described thus: NCI 60 single concentration growth inhibition. The format is cell-based, human. The conditions noted are these: Homo sapiens, HT-29, HT29, Colon cancer, read-out: GI%. Put shortly: as §1
For the next assay, the system named is LOX IMVIL. The assay can be described thus: NCI 60 single concentration growth inhibition. The format is cell-based, human. The conditions noted are these: Homo sapiens, Melanoma, read-out: GI%. The essentials:
as §1

Another assay relates to NCI-H522. The assay can be described thus: NCI 60 single concentration growth inhibition. The format is cell-based, human. The conditions noted are these: Homo sapiens, NCI-H522, Non-small cell lung cancer, read-out: GI%. Put shortly:
as §1

In a further assay the test system is NCI/ADR-RES. The assay can be described thus: NCI 60 single concentration growth inhibition. The format is cell-based, human. The conditions noted are these: Homo sapiens, Ovarian cancer, read-out: GI%. Put shortly: as §1
In the next assay the test system is OVCAR-3. The assay is described as follows: NCI 60 single concentration growth inhibition. The format is cell-based, human. The conditions noted are these: Homo sapiens, OVCAR-3, Ovarian cancer, read-out: GI%. The essentials:
as §1

Another assay has as its system SW-620. The assay can be described thus: NCI 60 single concentration growth inhibition. The format is cell-based, human. The conditions noted are these: Homo sapiens, SW-620, Colon cancer, read-out: GI%. The essentials:
as §1

Assay [1] concerns NCI 60 cancer cell line panel. The assay can be described thus: NCI 60 single concentration growth inhibition, panel mean. The format is cell-based. The conditions noted are these: Homo sapiens, mean over NCI 60 panel, read-out: Mean GI%. The essentials: as §1

Bounds are passed on as bounds.

Take `COC(=O)COc1ccc(C=NNC(=O)Cn2c(-c3ccc(OC)cc3)nc3cc(Cl)c(Cl)cc32)cc1OC` [Compound 10p, Methyl-2-(4-((2-(2-(5,6-dichloro-2-(4-methoxyphenyl)-1H-benzo[d]imidazol-1-yl)acetyl)hydrazono)methyl)-2-methoxyphenoxy)acetate]: the inhibition at 10 µM in the assay on CAKI-1 was 16.5%; in the assay on HCT-116 it was 25.1%; with KM12, below 5%; in the assay with MDA-MB-435 it was 31.9%; in the assay on MOLT-4 it was 13.7%; with NCI-H23, below 5%. In addition, the inhibition at 10 µM turned out to be 15.7% with RPMI-8226; 101% in the assay on SF-539; 143% with DU-145; 86.1% in the assay with HCC-2998; 21.5% with HCT-15; 116% in the assay with HT29. The inhibition at 10 µM with LOX IMVIL was 25.2%; in the assay on NCI-H522, 6.3%; in the assay on NCI/ADR-RES, 5.42%; with OVCAR-3, below 5%; in the assay on SW-620, below 5%; in assay [1], 37.6%.
Consider `COC(=O)COc1cc(C=NNC(=O)Cn2c(-c3ccc(OC)cc3)nc3cc(Cl)c(Cl)cc32)ccc1OC` [Compound 10o, Methyl-2-(5-((2-(2-(5,6-dichloro-2-(4-methoxyphenyl)-1H-benzo[d]imidazol-1-yl)acetyl)hydrazono)methyl)-2-methoxyphenoxy)acetate], for which the inhibition at 10 µM in the assay on CAKI-1 is 37%; in the assay with HCT-116, 22.9%; in the assay on KM12 it was below 5%; in the assay on MDA-MB-435, 45.5%; with MOLT-4, 40.4%; with NCI-H23, 7.03%. Also, the inhibition at 10 µM is 17.9% in the assay on RPMI-8226; 80% in the assay on SF-539; 155% with DU-145; 83.8% in the assay on HCC-2998; 23.6% with HCT-15; 90.3% with HT29. Also, the inhibition at 10 µM in the assay with LOX IMVIL was 36.4%; in the assay on NCI-H522, 32.7%; in the assay with NCI/ADR-RES it was 11.1%; in the assay with OVCAR-3 it was below 5%; in the assay with SW-620, below 5%; in assay [1] it was 34.6%.
With `COc1ccc(-c2nc3cc(Cl)c(Cl)cc3n2CC(=O)NN=Cc2ccc(OC)c(O)c2)cc1` [Compound 10k, 2-(5,6-Dichloro-2-(4-methoxyphenyl)-1H-benzo[d]imidazol-1-yl)-N'-(3-hydroxy-4-methoxybenzylidene)acetohydrazide], the inhibition at 10 µM in the assay with CAKI-1 was 48.2%; in the assay with HCT-116 it was 22%; in the assay on KM12 it was 20.1%; with MDA-MB-435, 46.8%; with MOLT-4 it was 76.1%; in the assay on NCI-H23, 21.1%. Also, the inhibition at 10 µM was found to be 38.8% with RPMI-8226; 29.1% in the assay on SF-539; 26.4% in the assay on DU-145; 32.2% with HCC-2998; 47.2% in the assay on HCT-15; 30.2% in the assay on HT29. Also, the inhibition at 10 µM was 38.4% in the assay on LOX IMVIL; 37.8% in the assay on NCI-H522; 40.1% in the assay on NCI/ADR-RES; 23.3% in the assay with OVCAR-3; 6.39% in the assay with SW-620; 35.4% in assay [1].
With `COc1ccc(-c2nc3cc(Cl)c(Cl)cc3n2CC(=O)NN=Cc2cccc(OC)c2)cc1` [Compound 10c, 2-(5,6-Dichloro-2-(4-methoxyphenyl)-1H-benzo[d]imidazol-1-yl)-N'-(3-methoxybenzylidene)acetohydrazide], the inhibition at 10 µM stood at 43.5% in the assay on CAKI-1; 37.9% in the assay on HCT-116; 17.6% with KM12; 33% with MDA-MB-435; 70.3% in the assay on MOLT-4; 10.2% with NCI-H23. For the same molecule, the inhibition at 10 µM in the assay on RPMI-8226 is 47.3%; with SF-539, 24.4%; with DU-145 it was 23.3%; in the assay on HCC-2998, 7.72%; in the assay with HCT-15, 44.2%; in the assay on HT29, 5.29%. The inhibition at 10 µM in the assay with LOX IMVIL stood at 30.3%; with NCI-H522, 15.1%; in the assay with NCI/ADR-RES, 21.3%; with OVCAR-3, 14.4%; with SW-620, 10.2%; in assay [1], 28.1%.
